From patent publication US20110097426A1, “Methods for Safe and Effective Treatment Using Oxazaphosphorine Drugs” (Accentia Biopharmaceuticals, Inc., priority 2007, published 2011)
Like-named read-outs stand apart in the source and are kept apart here.

What was measured:
[1] = system: white blood cell (WBC) count
Protocol: Nine patients were treated 50 mg/kg/day cyclophosphamide intravenously for four days (on Day-3 to Day 0).
On Day 6, (six days after completion of high-dose cyclophosphamide treatment), patients received G-CSF.

[2] = system: patients with aggressive relapsing-remitting multiple sclerosis
Text: All 9 patients had aggressive relapsing-remitting multiple sclerosis, 8 of whom failed conventional therapy and 1 was untreated. Median age at time of entry was 29 years (range of 20 to 47 years). The mean number of gadolinium enhancing lesions on baseline MRI was 6.5 (range 3-11).

## O=P1(N(CCCl)CCCl)NCCCO1 (stereo not shown) [cyclophosphamide]
[1]; patient HiCy01
  minimum WBC: 70
[1]; patient HiCy07
  minimum WBC: 6
[1]; patient HiCy11
  minimum WBC count: 24
[1]; patient HiCy14
  minimum WBC: 31
[1]; patient HiCy19
  minimum WBC count: 50
[1]; patients HiCy05 and HiCy13, within two weeks of treatment
  WBC count: 0
[1]; patients HiCy09 and HiCy15 (both)
  minimum WBC count: 12
[2]; 50 mg/kg/day i.v. for four days, 9 patients
  reduction in disability (EDSS): 50%
[2]; at 6 months, 50 mg/kg/day i.v. for four days, 9 patients
  reduction in gadolinium enhancements: 90%
[2]; by 18 months, 50 mg/kg/day i.v. for four days, 9 patients
  reduction in gadolinium enhancements: 94%
[2]; initial cohort of 9 patients with severe relapsing MS
  adverse outcomes: no significant adverse outcomes
[2]; of 9 patients
  patients having no disability (EDSS score of 0): 3 patients
  patients with EDSS score of 1: 1 patient
[2]; of 9 patients, started on conventional MS therapy at 18 months
  patients with an exacerbation during follow-up: one
[2]; patient HiCy01
  gadolinium enhancing lesions (GEL) at subsequent follow-up visits: did not have any GEL
[2]; patients HiCy05 and HiCy13, up to 24 months follow-up
  gadolinium enhancing lesions (GEL) at follow-up: no gadolinium enhancing lesions
[2]; patients HiCy07 and HiCy14, who first went to 0 GEL
  gadolinium enhancing lesions (GEL) on follow-up MRIs: a single GEL
[2]; patients HiCy09 and HiCy15
  gadolinium enhancing lesions (GEL): 0
[2]; patients HiCy11 and HiCy19 (HiCy19 only 6 months of follow-up)
  gadolinium enhancing lesions (GEL) at follow-up: always had GEL on every follow up
